Results: patent US20250320213A1, “Nitrogen-Containing Heterocyclic Compounds” (Pfizer Inc., priority 2024, published 2025)

What was measured:
[1] = tested on: CCL17 secretion in peripheral human whole blood; test: Human Whole Blood (HWB) CCL17 TR-FRET Assay (IL-13 stimulated CCL17 secretion); format: cell-based; settings: human whole blood, IL-13 stimulated
In short: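 Heparinized peripheral human whole blood was preincubated with compound (11-point, 3-fold series, duplicate) for 2 h at 37 °C, then stimulated with IL-13 at 10 ng/mL final for 48 h at 37 °C. Secreted CCL17 in the serum was quantified by TR-FRET sandwich immunoassay (665/615 nm ratio, 16 h RT); IC50 derived.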

[2] = biological target: T1, STAT6 (Homo sapiens, UniProt P42226); test: STAT6 Reporter Luciferase Assay (IL-13 stimulated HaCaT keratinocyte NanoLuc reporter cells); format: cell-based; settings: IL-13 stimulated HaCaT STAT6 NanoLuc reporter cells; read-out: Reporter EC50
T1 construct: stably transfected HaCaT keratinocyte cell line, which expresses NanoLuc luciferase reporter gene under the transcriptional control of the STAT6 responsive promoter; endogenous in cells; host or cells: HaCaT keratinocyte reporter cell line (stably transfected with a NanoLuc reporter)
T1 sequence (P42226 1-847): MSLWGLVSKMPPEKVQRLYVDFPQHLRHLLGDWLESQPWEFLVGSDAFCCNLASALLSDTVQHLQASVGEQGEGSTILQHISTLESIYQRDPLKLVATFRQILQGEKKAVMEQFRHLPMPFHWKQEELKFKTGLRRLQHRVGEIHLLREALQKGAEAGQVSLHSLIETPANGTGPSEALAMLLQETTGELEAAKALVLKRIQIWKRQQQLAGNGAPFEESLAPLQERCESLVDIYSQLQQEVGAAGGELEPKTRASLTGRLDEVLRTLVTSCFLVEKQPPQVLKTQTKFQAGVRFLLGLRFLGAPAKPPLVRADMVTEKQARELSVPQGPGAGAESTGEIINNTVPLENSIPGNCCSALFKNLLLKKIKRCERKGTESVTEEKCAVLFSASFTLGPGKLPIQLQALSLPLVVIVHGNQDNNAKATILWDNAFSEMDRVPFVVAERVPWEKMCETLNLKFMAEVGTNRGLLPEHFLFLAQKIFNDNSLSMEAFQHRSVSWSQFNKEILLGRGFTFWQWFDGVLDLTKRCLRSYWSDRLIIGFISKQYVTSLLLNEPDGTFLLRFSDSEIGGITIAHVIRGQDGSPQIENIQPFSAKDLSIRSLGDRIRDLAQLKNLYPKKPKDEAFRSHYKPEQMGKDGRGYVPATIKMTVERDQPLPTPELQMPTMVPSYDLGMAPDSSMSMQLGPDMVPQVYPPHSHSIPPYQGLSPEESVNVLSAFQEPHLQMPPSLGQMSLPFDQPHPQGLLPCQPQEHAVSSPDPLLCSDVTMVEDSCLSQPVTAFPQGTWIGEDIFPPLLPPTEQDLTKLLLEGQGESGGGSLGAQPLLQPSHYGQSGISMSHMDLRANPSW
In short: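 Stably transfected HaCaT cells carrying NanoLuc under the STAT6-responsive IL-13Ra2 promoter were pre-treated with compound (11-point, 4-fold series, duplicate) for 2 h at 37 °C, then stimulated with 0.12 nM IL-13 for 4 h. Nano-Glo luminescence was read after 15 min.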

Row | Compound | IC50 ([1]; 48 hours) [nM] | EC50 [2] [nM] | IC50 ([1]; Homo sapiens, 48 h) [nM]
1 | CCC(C)n1nc(C(=O)NCc2ccc(NC(=O)N(C)C)cc2)c2c1[C@@H](C)CN(c1ccc(C(=O)N(C)C)cn1)C2 (single isomer, unassigned) [Example 319, (S)-1-((R*)-sec-butyl)-5-(5-(dimethylcarbamoyl)pyridin-2-yl)-N-(4-(3,3-dimethylureido)benzyl)-7-methyl-4,5,6,7-tetrahydro-1H-pyrazolo[4,3-c]pyridine-3-carboxamide] | 13 | 1 | 
2 | CC(C)n1nc(C(=O)NCc2ccc(-c3ncc[nH]3)cc2)c2c1[C@@H](C)CN(c1ncc(C(=O)N(C)C)cn1)C2 (single isomer, unassigned) [Example 335] |  | 1 | 5
3 | CC(CC#N)n1nc(C(=O)NCc2ccc(NC(=O)N(C)C)cc2)c2c1CCN(c1ccc(C(=O)N(C)C)cn1)C2 (single isomer, unassigned) [Example 348, rel-(R or S)-1-(1-cyanopropan-2-yl)-5-(5-(dimethylcarbamoyl)pyridin-2-yl)-N-(4-(3,3-dimethylureido)benzyl)-4,5,6,7-tetrahydro-1H-pyrazolo[4,3-c]pyridine-3-carboxamide] | 36 | 43 | 
4 | CC(C)n1nc(C(=O)NCc2ccc(NC(=O)N(C)C)cc2)c2c1[C@H](C)[C@@H](C)N(c1ccc(C(=O)N(C)C)cn1)C2 (single isomer, unassigned) [Example 354] |  | 4 | 24
5 | CC(C)n1nc(C(=O)NCc2ccc(NC(=O)N(C)C)cc2)c2c1[C@@H](C)[C@H](C)N(c1ccc(C(=O)N(C)C)cn1)C2 (single isomer, unassigned) [Example 355] |  | 0.2 | 3
6 | CNC(=O)c1ccc(CNC(=O)c2nn(C(C)C)c3c2CN(c2ccc(C(=O)N(C)C)cn2)CC3C(F)(F)F)cc1 (single isomer, unassigned) [Example 357, rel-(R or S)-5-(5-(dimethylcarbamoyl)pyridin-2-yl)-1-isopropyl-N-(4-(methylcarbamoyl)benzyl)-7-(trifluoromethyl)-4,5,6,7-tetrahydro-1H-pyrazolo[4,3-c]pyridine-3-carboxamide] | 20 | 1 | 
7 | CC(CO)n1nc(C(=O)NCc2ccc(NC(=O)N(C)C)cc2)c2c1CCN(c1ccc(C(=O)N(C)C)cn1)C2 (single isomer, unassigned) [Example 359, rel-(R or S)-5-(5-(dimethylcarbamoyl)pyridin-2-yl)-N-(4-(3,3-dimethylureido)benzyl)-1-(1-hydroxypropan-2-yl)-4,5,6,7-tetrahydro-1H-pyrazolo[4,3-c]pyridine-3-carboxamide] | 869 | 358 | 
8 | CC(CO)n1nc(C(=O)NCc2ccc(NC(=O)N(C)C)cc2)c2c1CCN(c1ccc(C(=O)N(C)C)cn1)C2 (single isomer, unassigned) [Example 360, rel-(R or S)-5-(5-(dimethylcarbamoyl)pyridin-2-yl)-N-(4-(3,3-dimethylureido)benzyl)-1-(1-hydroxypropan-2-yl)-4,5,6,7-tetrahydro-1H-pyrazolo[4,3-c]pyridine-3-carboxamide] | 91 | 74 | 

Continued, values first:

Row | IC50 ([1]; 48 hours) [nM] | EC50 [2] [nM] | IC50 ([1]; Homo sapiens, 48 h) [nM] | Compound
9 |  | 14 | 41 | CCC1CN(c2ccc(C(=O)N(C)C)cn2)Cc2c(C(=O)NCc3ccc(NC(=O)N(C)C)cc3)nc(C)n21 (single isomer, unassigned) [Example 336, rel-(R or S)-7-(5-(dimethylcarbamoyl)pyridin-2-yl)-N-(4-(3,3-dimethylureido)benzyl)-5-ethyl-3-methyl-5,6,7,8-tetrahydroimidazo[1,5-a]pyrazine-1-carboxamide]
10 | 127 | 83 |  | CC(CC#N)n1nc(C(=O)NCc2ccc(NC(=O)N(C)C)cc2)c2c1CCN(c1ccc(C(=O)N(C)C)cn1)C2 (single isomer, unassigned) [Example 347, rel-(R or S)-1-(1-cyanopropan-2-yl)-5-(5-(dimethylcarbamoyl)pyridin-2-yl)-N-(4-(3,3-dimethylureido)benzyl)-4,5,6,7-tetrahydro-1H-pyrazolo[4,3-c]pyridine-3-carboxamide]
11 |  | 0.3 | 3 | CCn1nc(C(=O)NCc2ccc(NC(=O)N(C)C)cc2)c2c1[C@@H](C)[C@H](C)N(c1ccc(C(=O)N(C)C)cn1)C2 (single isomer, unassigned) [Example 352]
12 |  | 4 | 47 | CCn1nc(C(=O)NCc2ccc(NC(=O)N(C)C)cc2)c2c1[C@H](C)[C@@H](C)N(c1ccc(C(=O)N(C)C)cn1)C2 (single isomer, unassigned) [Example 353]
13 | 3310 | 246 |  | CNC(=O)c1ccc(CNC(=O)c2nn(C(C)C)c3c2CN(c2ccc(C(=O)N(C)C)cn2)CC3C(F)(F)F)cc1 (single isomer, unassigned) [Example 356, rel-(R or S)-5-(5-(dimethylcarbamoyl)pyridin-2-yl)-1-isopropyl-N-(4-(methylcarbamoyl)benzyl)-7-(trifluoromethyl)-4,5,6,7-tetrahydro-1H-pyrazolo[4,3-c]pyridine-3-carboxamide]
14 |  | 158 | > 4080 | CC(C)n1nc(C(=O)NCc2ccc(NC(=O)N(C)C)cc2)c2c1CCN(c1ccc(C3CCCO3)cn1)C2 (single isomer, unassigned) [Example 361, rel-(R or S)-N-(4-(3,3-dimethylureido)benzyl)-1-isopropyl-5-(5-(tetrahydrofuran-2-yl)pyridin-2-yl)-4,5,6,7-tetrahydro-1H-pyrazolo[4,3-c]pyridine-3-carboxamide]
15 | > 3490 | 838 |  | CC(C)n1nc(C(=O)NCc2ccc(NC(=O)N(C)C)cc2)c2c1CCN(c1ccc(C3CCCO3)cn1)C2 (single isomer, unassigned) [Example 362, rel-(R or S)-N-(4-(3,3-dimethylureido)benzyl)-1-isopropyl-5-(5-(tetrahydrofuran-2-yl)pyridin-2-yl)-4,5,6,7-tetrahydro-1H-pyrazolo[4,3-c]pyridine-3-carboxamide]
16 |  | 740 | 2170 | CN(C)C(=O)Nc1ccc(CNC(=O)c2nn(C)c3c2CN(c2ccc(C(=O)N(C)C)cn2)CC3C(F)(F)F)cc1 (single isomer, unassigned) [Example 391, rel-(R or S)-5-(5-(dimethylcarbamoyl)pyridin-2-yl)-N-(4-(3,3-dimethylureido)benzyl)-1-methyl-7-(trifluoromethyl)-4,5,6,7-tetrahydro-1H-pyrazolo[4,3-c]pyridine-3-carboxamide]
17 |  | 568 | 1080 | CN(C)C(=O)Nc1ccc(CNC(=O)c2nn(C)c3c2CN(c2ncc(C(=O)N(C)C)cn2)CC3C(F)(F)F)cc1 (single isomer, unassigned) [Example 392, rel-(R or S)-5-(5-(dimethylcarbamoyl)pyrimidin-2-yl)-N-(4-(3,3-dimethylureido)benzyl)-1-methyl-7-(trifluoromethyl)-4,5,6,7-tetrahydro-1H-pyrazolo[4,3-c]pyridine-3-carboxamide]
18 |  | > 8750 | > 30000 | CC(C)n1nc(C(=O)NCc2ccc(NC(=O)N(C)C)cc2)c2c1CCN(c1ccc(C3CCCCO3)cn1)C2 (single isomer, unassigned) [Example 393, rel-(R or S)-N-(4-(3,3-dimethylureido)benzyl)-1-isopropyl-5-(5-(tetrahydro-2H-pyran-2-yl)pyridin-2-yl)-4,5,6,7-tetrahydro-1H-pyrazolo[4,3-c]pyridine-3-carboxamide]
19 | > 30000 | > 7660 |  | CC(C)n1nc(C(=O)NCc2ccc(NC(=O)N(C)C)cc2)c2c1CCN(c1ccc(C3CCCCO3)cn1)C2 (single isomer, unassigned) [Example 394, rel-(R or S)-N-(4-(3,3-dimethylureido)benzyl)-1-isopropyl-5-(5-(tetrahydro-2H-pyran-2-yl)pyridin-2-yl)-4,5,6,7-tetrahydro-1H-pyrazolo[4,3-c]pyridine-3-carboxamide]
20 | 140 | 17 |  | CCc1nc(C(=O)NCc2ccc(NC(=O)N(C)C)cc2)c2n1C(C)CN(c1ccc(C(=O)N(C)C)cc1)C2 (single isomer, unassigned) [Example 428, rel-(R or S)-7-(4-(dimethylcarbamoyl)phenyl)-N-(4-(3,3-dimethylureido)benzyl)-3-ethyl-5-methyl-5,6,7,8-tetrahydroimidazo[1,5-a]pyrazine-1-carboxamide]
